“Also recorded” adds a separate entry of the source. Values belong to the molecule of their own block, whether it stands above or below them.
Columns and labels:
Melanocytes 1 = test: Toxicity via ATP-based assay (Cell titer glow); conditions: ATP-based assay 2 days after start of treatment
Description: (§1) Three different NNT inhibitors were tested for efficacy and toxicity in melanocytes and melanoma cells. […] Toxicity measured via ATP-based assays (Cell titer glow) 2 days after start of treatment.

Melanocytes 2 = test: Toxicity via ATP-based assay (Cell titer glow); conditions: ATP-based assay 2 days after start of treatment
Description: as §1

Dermal Fibroblasts = test: Toxicity via ATP-based assay (Cell titer glow); conditions: ATP-based assay 2 days after start of treatment
Keratinocytes = test: Toxicity via ATP-based assay (Cell titer glow); conditions: ATP-based assay 2 days after start of treatment
human skin explants [1] = test: Pigmentation of human skin explants treated topically or intradermally with NNT inhibitors (visual inspection, colorimeter, Fontana-Masson staining); assay type: cell-based; conditions: for microscopic pigmentation / eumelanin, Fontana-Masson staining: 50 mM, once per day for 5 consecutive days; for human skin pigmentation (darkening): daily application for 5 days
Description: Human skin explants obtained from subjects undergoing abdominoplasty were defatted and grown on 2% agar plates for 10 days. These explants were treated topically or intradermally with NNT inhibitors. […]
In addition, skin patches (Fitzpatrick Type II) were topically treated for 4 days with 2,3 butane-dione at the following concentrations: 0.4% w/v (˜47 mM), 0.8% w/v, 1.6% w/v, 3.12% w/v, 6.25% w/v, 12.5% w/v, and 25% w/v.

Melan-A cells = test: Measurement of eumelanin in murine melanocytes; assay type: cell-based
human skin = test: Cyclobutane dimer (CPD) staining of treated human skin, DNA damage; assay type: cell-based; conditions: 50 mM once per day for 5 days; for CPD formation after UVB irradiation: then 1000 mJ/cm^2 UVB, vs DMSO+UVB control
Description: Cyclobutane dimer (CPD) staining was performed on human skin treated with 50 mM 2,3butanedione for 5 consecutive days (treatment once per day) as a marker to assess DNA damage in the skin samples. On the fifth day, skin was irradiated with 1000 mJ/cm^2 UVB (equivalent to approximately 3 h in the sun at equatorial areas).

human skin explants [2] = test: H&E staining of treated skin samples (inflammation, skin damage); assay type: cell-based; conditions: 50 mM, skin patches
UACC257 melanoma cells = test: GSH/GSSG measurements after DCC treatment; assay type: cell-based, human; conditions: 3 days after DCC treatment
Description: (§2) FIGS. 7A-7C show GSH/GSSG ratios 3 days after N,N-Dicyclohexylcarbodiimide (DCC) treatment. To confirm the observation by Moody et al. (Biochem J., 1983) that DCC and Butanedione inhibit NNT enzyme activity, GSH/GSSG measurements were performed in human melanoma and primary melanocytes. […] FIG. 7A, GSH and GSSG measurements in UACC257 melanoma cells. FIG. 7B, GSH and GSSG measurements in primary melanocytes (PM) WM26 cells. FIG. 7C, GSH/GSSG ratios of UACC257 melanoma and […] primary melanocytes. *, indicates significant differences (p<0.05).
(§3) In one embodiment GSH/GSSG ratios are determined using the GSH/GSSG-GLO assay commercially available from PROMEGA.

[3] = test system: primary melanocytes (PM) WM26 cells; test: GSH/GSSG measurements after DCC treatment; assay type: cell-based, human; conditions: primary melanocytes WM26, 3 days after DCC treatment
Description: as §2, §3

UACC 257 melanoma = test: BrdU ELISA toxicity; assay type: cell-based, human; conditions: 3 days after treatment
Description: (§4) FIGS. 8A-8B show BrdU ELISA data 3 days after DCC treatment.
(§5) In one embodiment, the viability of a cell or the proliferation of a cell is determined using a bromodeoxyuridine (BrdU) assay. BrdU is a synthetic analog of thymidine that is commonly used in the detection of proliferating cells in living tissues. BrdU can be incorporated into the newly synthesized DNA of replicating cells (during the S phase of the cell cycle), substituting for thymidine during DNA replication. Antibodies specific for BrdU can then be used to detect the incorporated chemical, thus indicating cells that were actively replicating their DNA. BrdU assays are well known to those of skill in the art and are not described in detail herein. In some embodiments, an ATP=based measurement can be used (e.g., Cell Titer Glow™).

WM26 primary melanocytes = test: BrdU ELISA toxicity; assay type: cell-based, human; conditions: 3 days after treatment
Description: as §4, §5

SMILES: CC(=O)C(C)=O [2,3 Butanedione, 2,3-butanedione]
IC50 (Melanocytes 1; Melanocyte, 48 h): > 10 µM
IC50 (Melanocytes 2; Melanocyte, 48 h): > 10 µM
IC50 (Dermal Fibroblasts; Fibroblast, 48 h): > 10 µM
IC50 (Keratinocytes; Keratinocyte, 48 h): > 10 µM
microscopic pigmentation / eumelanin, Fontana-Masson staining (human skin explants [1]): increase in eumelanin expression
microscopic pigmentation / eumelanin, Fontana-Masson staining (human skin explants [1]; listed as 2,3 BD): significant microscopic pigmentation
pigmentation compared with one-time UV-B treatment at 150 mJ/cm^2 (human skin explants [1]; Fitzpatrick Type II skin patches, topical 4 days, lowest concentration 0.4% w/v (~47 mM)): darker than the pigmentation induced by a one-time UV-B treatment
pigmentation with increasing concentrations (human skin explants [1]; Skin type 2 (Fitzpatrick Scale) explant, in DMSO): increase pigmentation
lowest dose at which visible changes in skin pigmentation were observed (human skin explants [1]; once per day for five consecutive days, all three skin types (Fitzpatrick I-II, III-IV, V-VI), lowest dose tested): 1.2 µM
human skin pigmentation (darkening) (human skin explants [1]; topical, human skin explants): visible increase of human skin pigmentation
human skin pigmentation (darkening) (human skin explants [1]; topical, human skin explants, listed as 2,3 BD): significant darkening
pigmentation (eumelanin) (Melan-A cells; 2 mM): increased pigmentation
pigmentation (eumelanin) (Melan-A cells; 10 mM): increased pigmentation
CPD formation after UVB irradiation (human skin; listed as 2, 3, butanedione): decrease in CPD
CPD formation after UVB irradiation (human skin; listed as 2,3BD): protective role
CPD formation in the absence of UV radiation exposure (human skin; vs DMSO treated control): decrease in CPD formation
inflammation or skin damage, H&E staining (human skin explants [2]): no inflammation was observed
inflammation or skin damage, H&E staining (human skin explants [2]; listed as 2,3 BD): No significant inflammation or skin damage

skin penetration after topical application (human skin explants [1]; topical, human skin explants): unable to penetrate
SMILES: CCCCCCCCCCCCCCCC(=O)SCCNC(=O)CCNC(=O)[C@H](O)C(C)(C)COP(=O)(O)OP(=O)(O)OC[C@H]1O[C@@H](n2cnc3c(N)ncnc32)[C@H](O)[C@@H]1OP(=O)(O)O [Palmitoyl-CoA, palmitoyl CoA]
IC50 (Melanocytes 1; Melanocyte, 48 h): > 10 µM
IC50 (Melanocytes 2; Melanocyte, 48 h): > 10 µM
IC50 (Dermal Fibroblasts; Fibroblast, 48 h): > 10 µM
IC50 (Keratinocytes; Keratinocyte, 48 h): > 10 µM
skin darkening after intradermal treatment (human skin explants [1]; intradermal, human skin explants): induced darkening

SMILES: C(=NC1CCCCC1)=NC1CCCCC1 [DCC, N,N-Dicyclohexylcarbodiimide]
IC50 (Melanocytes 1): > 10 µM
IC50 (Melanocytes 2): > 10 µM
IC50 (Dermal Fibroblasts): > 10 µM
IC50 (Keratinocytes): > 10 µM
human skin pigmentation (darkening) (human skin explants [1]; topical, human skin explants): significant darkening; also recorded: visible increase of human skin pigmentation
GSH/GSSG ratios (UACC257 melanoma cells): decreased in a dose-dependent manner
GSH/GSSG ratios [3]: decreased in a dose-dependent manner
cell death (BrdU ELISA) (UACC 257 melanoma): no significant induction of cell death
cell death (BrdU ELISA) (WM26 primary melanocytes): no significant induction of cell death
pigmentation (eumelanin) (Melan-A cells; 10 mM): increased pigmentation

Reference: US9883996B2, “Methods and compositions for enhancing skin pigmentation” (THE GENERAL HOSPITAL CORPORATION, priority 2014, dated 2018)
